Measured values: patent publication US6828339B2, “Amlodipine salt forms and processes for preparing them” (Synthon BV, priority 2001, dated 2004)

Legend:
Format in all cases: physicochemical
Light sensitivity = conditions: compared with known anhydrate
[1] = Stability in solid state and in solution
[2] = Weight gain of dried (anhydrate) salt form on exposure to air; conditions: exposed to air
From the text: 1(c). A sample of the anhydrate formed in example 1(b) was exposed to air and the weight gain recorded as follows: […]

[3] = Annealing of the dihydrate, form checked by IR
Protocol: 1(d). A sample from example 1(a) was annealed for 10 minutes at 90° C. while another sample of the same product was annealed for 30 minutes at 145° C. […] The IR for the sample annealed for 10 minutes is as shown in FIG. 4 and the IR for the sample annealed for 30 minutes is as shown in FIG. 5.

[4] = Weight loss on drying in a vacuum oven; conditions: vacuum oven at 40° C. for 65 hours
Protocol: 1(b). 735.1 mg of the product of example 1(a) was dried in a vacuum oven at 40° C. for 65 hours. The weight loss was 0.043 g or 5.85%, which corresponds to 1.9 moles of water per mole of amlodipine.

[5] = compared with known prior art anhydrate

amlodipine besylate monohydrate
light sensitivity (Light sensitivity): slightly less in comparison to the known anhydrate | stability in solid state [1, 5]: equivalent to the known prior art amlodipine besylate anhydrate form | stability in solution [1, 5]: equivalent to the known prior art amlodipine besylate anhydrate form | stability of hydrate form ([1]; monohydrate compared with dihydrate, conversion by heating): more stable than the dihydrate form

CCOC(=O)C1=C(COCCN)NC(C)=C(C(=O)OC)C1c1ccccc1Cl.O=S(=O)(O)c1ccccc1 (centres unmarked) [example 1(b)]
moles of water taken up for one mole of amlodipine ([2]; 21 hour): two | Weight after 30 min ([2]; weight at start 103.1 mg): 105.7 mg | Weight after 1 hour ([2]; weight at start 103.1 mg): 107.3 mg | Weight after 3.5 hour ([2]; weight at start 103.1 mg): 109.3 mg | Weight after 21 hour ([2]; weight at start 103.1 mg): 109.3 mg

CCOC(=O)C1=C(COCCN)NC(C)=C(C(=O)OC)C1c1ccccc1Cl.O=S(=O)(O)c1ccccc1 (centres unmarked) [example 2(a)]
mole of water taken up for one mole of amlodipine ([2]; 21 hour): one | Weight after 30 min ([2]; weight at start 318.6 mg): 320.3 mg | Weight after 1 hour ([2]; weight at start 318.6 mg): 323.9 mg | Weight after 3.5 hour ([2]; weight at start 318.6 mg): 328.2 mg | Weight after 21 hour ([2]; weight at start 318.6 mg): 328.2 mg

amlodipine besylate dihydrate [example 1(a)]
form after annealing (IR) ([3]; annealed for 10 minutes at 90° C.): converted to the known anhydrate form | form after annealing (IR) ([3]; annealed for 30 minutes at 145° C.): converted to the known anhydrate form | moles of water per mole of amlodipine lost [4]: 1.9 mol
